This note sets out measurements from patent publication US20090105266A1, “Organic compounds” (priority 2007, published 2009).

The assay deals with T1, mGluR5 (Homo sapiens, UniProt P41594).
T1 construct: expressed in transfected cells
T1 sequence (P41594 21-1180 isoform P41594-2 limits assumed): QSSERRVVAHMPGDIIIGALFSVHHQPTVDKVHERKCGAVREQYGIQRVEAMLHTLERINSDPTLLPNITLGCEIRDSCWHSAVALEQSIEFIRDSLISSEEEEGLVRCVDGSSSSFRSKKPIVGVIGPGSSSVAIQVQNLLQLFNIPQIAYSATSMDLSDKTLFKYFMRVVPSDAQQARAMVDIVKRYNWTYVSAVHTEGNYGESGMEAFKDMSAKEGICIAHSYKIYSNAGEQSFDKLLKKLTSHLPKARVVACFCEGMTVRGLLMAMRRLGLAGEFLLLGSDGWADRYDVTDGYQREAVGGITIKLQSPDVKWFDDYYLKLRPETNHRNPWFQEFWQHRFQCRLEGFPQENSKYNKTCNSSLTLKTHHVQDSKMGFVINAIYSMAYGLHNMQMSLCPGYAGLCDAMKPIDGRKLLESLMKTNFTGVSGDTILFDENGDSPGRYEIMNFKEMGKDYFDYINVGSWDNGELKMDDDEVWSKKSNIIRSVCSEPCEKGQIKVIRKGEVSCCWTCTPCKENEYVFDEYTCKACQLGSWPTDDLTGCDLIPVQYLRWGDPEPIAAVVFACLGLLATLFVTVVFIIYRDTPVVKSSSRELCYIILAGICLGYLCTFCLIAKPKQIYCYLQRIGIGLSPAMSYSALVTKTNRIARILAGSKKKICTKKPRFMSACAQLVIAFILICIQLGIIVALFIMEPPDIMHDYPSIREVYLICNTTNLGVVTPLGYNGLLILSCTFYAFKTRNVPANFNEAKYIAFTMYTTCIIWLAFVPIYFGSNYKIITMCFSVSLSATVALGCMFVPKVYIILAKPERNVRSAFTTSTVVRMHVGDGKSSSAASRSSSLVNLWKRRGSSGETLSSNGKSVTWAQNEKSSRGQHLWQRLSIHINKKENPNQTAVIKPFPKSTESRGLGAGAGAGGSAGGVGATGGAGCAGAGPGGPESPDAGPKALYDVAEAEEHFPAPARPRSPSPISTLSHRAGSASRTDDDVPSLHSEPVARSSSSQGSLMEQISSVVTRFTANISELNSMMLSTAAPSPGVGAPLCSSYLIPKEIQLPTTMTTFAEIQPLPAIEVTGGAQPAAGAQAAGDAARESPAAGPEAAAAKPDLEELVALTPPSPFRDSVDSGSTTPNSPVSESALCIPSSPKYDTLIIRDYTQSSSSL
As to the kind of experiment: inhibition of the glutamate (agonist) induced elevation of the inositol phosphate turnover. The format is cell-based. To be noted: inhibition of glutamate induced elevation of inositol phosphate turnover at 0.1 μM. An excerpt:
This can be determined in vitro for example at recombinant human metabotropic glutamate receptors, especially PLC-coupled subtypes thereof such as mGluR5, using different procedures like, for example, measurement of the inhibition of the agonist induced elevation of intracellular Ca^2+ concentration in accordance with L. P. Daggett et al., Neuropharm. Vol. 34, pages 871-886 (1995), P. J. Flor et al., J. Neurochem. Vol. 67, pages 58-63 (1996) or by determination to what extent the agonist induced elevation of the inositol phosphate turnover is inhibited as described by T. Knoepfel et al., Eur. J. Pharmacol. Vol. 288, pages 389-392 (1994), L. P. Daggett et al., Neuropharm. Vol. 67, pages 58-63 (1996) and references cited therein. Isolation and expression of human mGluR subtypes are described in U.S. Pat. No. 5,521,297. Selected agents of the invention show IC50 values for the inhibition of the agonist (e.g. glutamate or quisqualate) induced elevation of intracellular Ca2+ concentration or the agonist (e.g. glutamate or quisqualate) induced inositol phosphate turnover, measured in recombinant cells expressing hmGluR^5a of about 0.1 nM to about 50 μM.
Activity of compounds of the present invention was examined by determination to what extent the agonist induced elevation of the inositol phosphate turnover is inhibited as described by T. Knoepfel et al., Eur. J. Pharmacol. Vol. 288, pages 389-392 (1994), L. P. Daggett et al., Neuropharm. Vol. 67, pages 58-63 (1996) and references cited therein.
The table below represents percentages of inhibition of the glutamate induced elevation of the inositol phosphate turnover at a concentration of 0.1 μM.
For the compound `CCCn1c(-c2ccc(Nc3ccc(OC)cc3)nc2)nc2cccc(Cl)c21` [Example 99, [5-(7-Chloro-1-propyl-1H-benzoimidazol-2-yl)-pyridin-2-yl]-(4-methoxy-phenyl)-amine], the inhibition (commonly the relative decrease from the control value, in per cent) at 0.1 µM came to 99%.
`CCCn1c(-c2ccc(Nc3ccc(C)nc3)nc2)nc2cccc(Cl)c21` [Example 100, [5-(7-Chloro-1-propyl-1H-benzoimidazol-2-yl)-pyridin-2-yl]-(6-methyl-pyridin-3-yl)-amine]: the inhibition at 0.1 µM is 100%.
As for `CCCn1c(-c2ccc(Nc3ccc(Cl)cc3)nc2)nc2cccc(Cl)c21` [Example 101, (4-Chloro-phenyl)-[5-(7-chloro-1-propyl-1H-benzoimidazol-2-yl)-pyridin-2-yl]-amine], the figure is 95%; as for `CCCn1c(-c2ccc(Nc3ccc(C)nc3)nc2)nc2ccccc21` [Example 102, (6-Methyl-pyridin-3-yl)-[5-(1-propyl-1H-benzoimidazol-2-yl)-pyridin-2-yl]-amine], 90%; as for `CCCn1c(-c2ccc(Nc3ccc(C)cc3)nc2)nc2cccc(Cl)c21` [Example 103, [5-(7-Chloro-1-propyl-1H-benzoimidazol-2-yl)-pyridin-2-yl]-p-tolyl-amine], 97%.
On to `CCCn1c(-c2ccc(Nc3ccc(Cl)cc3)nc2)nc2ccc(F)cc21` [Example 104, (4-Chloro-phenyl)-[5-(6-fluoro-1-propyl-1H-benzoimidazol-2-yl)-pyridin-2-yl]-amine], for which the inhibition at 0.1 µM was determined as 84%.
With `CCCn1c(-c2ccc(Nc3ccc(C)nc3)nc2)nc2ccc(F)cc21` [Example 105, [5-(6-Fluoro-1-propyl-1H-benzoimidazol-2-yl)-pyridin-2-yl]-(6-methyl-pyridin-3-yl)-amine], the inhibition at 0.1 µM turned out to be 85%.
As for `CCCn1c(-c2ccc(Nc3ccc(C)cc3)nc2)nc2ccc(F)cc21` [Example 106, [5-(6-Fluoro-1-propyl-1H-benzoimidazol-2-yl)-pyridin-2-yl]-p-tolyl-amine], the figure is 70%.
The same measure for `CCCn1c(-c2ccc(Nc3ccc(OC)cc3)nc2)nc2ccc(F)cc21` [Example 107, [5-(6-Fluoro-1-propyl-1H-benzoimidazol-2-yl)-pyridin-2-yl]-(4-methoxy-phenyl)-amine]: 64%; for `Cc1ccc(Nc2ccc(-c3nc4cccc(Cl)c4n3CC(C)C)cn2)cc1` [Example 108, [5-(7-Chloro-1-isobutyl-1H-benzoimidazol-2-yl)-pyridin-2-yl]-p-tolyl-amine]: 98%.
As for `CC(C)Cn1c(-c2ccc(Nc3ccc(Cl)cc3)nc2)nc2cccc(Cl)c21` [Example 109, [5-(7-Chloro-1-isobutyl-1H-benzoimidazol-2-yl)-pyridin-2-yl]-(4-chloro-phenyl)-amine], the figure is 91%; as for `COc1ccc(Nc2ccc(-c3nc4cccc(Cl)c4n3CC(C)C)cn2)cc1` [Example 110, [5-(7-Chloro-1-isobutyl-1H-benzoimidazol-2-yl)-pyridin-2-yl]-(4-methoxy-phenyl)-amine], 95%; as for `Cc1ccc(Nc2ccc(-c3nc4cccc(Cl)c4n3CC(C)C)cn2)cn1` [Example 111, [5-(7-Chloro-1-isobutyl-1H-benzoimidazol-2-yl)-pyridin-2-yl]-(6-methyl-pyridin-3-yl)-amine], 97%.
`CCCn1c(-c2cnc(Nc3ccc(OC)cc3)c(Cl)c2)nc2ccccc21` [Example 114, [3-Chloro-5-(1-propyl-1H-benzoimidazol-2-yl)-pyridin-2-yl]-(4-methoxy-phenyl)-amine]: the inhibition at 0.1 µM worked out at 99%.
As for `COc1ccc(Nc2ncc(-c3nc4cccc(Cl)c4n3CC(C)C)cc2Cl)cc1` [Example 114b, [3-chloro-5-(7-chloro-1-isobutyl-1H-benzoimidazol-2-yl)-pyridin-2-yl]-(4-methoxy-phenyl)-amine], the inhibition at 0.1 µM came to 100%.
The same measure for `Cc1ccc(Nc2ncc(-c3nc4cccc(Cl)c4n3CC(C)C)cc2Cl)cn1` [Example 114c, [3-chloro-5-(7-chloro-1-isobutyl-1H-benzoimidazol-2-yl)-pyridin-2-yl]-(6-methyl-pyridin-3-yl)-amine]: 111%; for `CCCn1c(-c2ccc(Nc3ccc(OC)cc3)nc2)nc2cccc(F)c21` [Example 114d, [5-(7-fluoro-1-propyl-1H-benzoimidazol-2-yl)-pyridin-2-yl]-(4-methoxy-phenyl)-amine]: 82%.
As for `CCCn1c(-c2ccc(Nc3ccc(C)nc3)c(Cl)c2)nc2ccc(F)cc21` [Example 115, [2-Chloro-4-(6-Fluoro-1-propyl-1H-benzoimidazol-2-yl)-phenyl]-(6-methyl-pyridin-3-yl)-amine], the figure is 99%; as for `Cc1ccc(Nc2ccc(-c3nc4cccc(Cl)c4n3CC(C)C)cc2Cl)cn1` [Example 116, [2-Chloro-4-(7-Chloro-1-isobutyl-1H-benzoimidazol-2-yl)-phenyl]-(6-methyl-pyridin-3-yl)-amine], 100%.
